# Data taken from paper PMC12514245, “Impaired migration and lung invasion of human melanoma by a novel small molecule targeting the transmembrane domain of death receptor p75^NTR” (EMBO Molecular Medicine, 2025).
# Values joined by “and” are separate entries in the source; they are usually repeats but may differ in a detail not shown here. Equal values may be shown once.
# Tests used:
# [1] = system: A875 NT cells; assay: Wound healing cell motility assay, A875 NT; assay type: cell-based, human; details: for Fold (wound area) / Wound area (Fold): A875 NT; for Fold (wound area): 0.75uM
# Procedure: For wound healing assay, cells were grown until confluency and subjected to a wound across the cell mono-layer. Cells were then incubated with serum-free media either with DMSO or a small molecule (with or without 5 µM Q_VD_poH) and imaged at specific time-points. Cell migration is reflected as fold change in wound area over time.
# [2] = system: A875 melanoma cells (NT); assay: Cleaved PARP western blot (apoptosis), A875 NT; assay type: cell-based, human
# Procedure: One of the main biological readouts of p75^NTR activity in response to neurotrophins is the induction of caspase-mediated apoptotic cell death (Underwood and Coulson, [2008]; Friedman, [2010]; Ibáñez and Simi, [2012]).
# COS7, A875 and WM115 cell lines were cultured under standard conditions in DMEM supplemented with 10% fetal calf serum, 100 units/ml penicillin, […] streptomycin, and 2.5 mM glutamine. All cells were authenticated and tested for mycoplasma contamination. A875-NT (control) and A875 shp75 (knockdown) cell lines were described previously (Goh et al, [2018]).
# [3] = target: T1, p75^NTR TMD I252A (Homo sapiens, UniProt P08138, I252A); assay: AraTM assay, I252A mutant p75NTR TMD; assay type: cell-based; details: for GFP/OD630, Mean / GFP/OD630, individual replicates: I252A
# T1 construct: Comparison of wild-type (WT) p75^NTR TMD and I252A, P253G and V254A mutants in the AraTM assay; expressed in transfected cells; host or cells: E. coli AS19 (LPS-negative)
# T1 sequence (P08138 250-275 I252A): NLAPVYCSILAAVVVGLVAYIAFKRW
compound,measurement,setting,value
Cc1cccc(-c2cncc(Nc3ccc(Br)c(Cl)c3Cl)n2)c1C [Np75-4A22],Fold (wound area),"[1]; 0 h, Average",1.000 Fold
same,Fold (wound area),"[1]; 0 h, n1",1.000 Fold
same,Fold (wound area),"[1]; 0 h, n2",1.000 Fold
same,Fold (wound area),"[1]; 0 h, n3",1.000 Fold
same,Fold (wound area),"[1]; 3 h, Average",0.916 Fold
same,Fold (wound area),"[1]; 3 h, n1",0.908 Fold
same,Fold (wound area),"[1]; 3 h, n2",0.920 Fold
same,Fold (wound area),"[1]; 3 h, n3",0.920 Fold
same,Fold (wound area),"[1]; 6 h, Average",0.871 Fold
same,Fold (wound area),"[1]; 6 h, n1",0.867 Fold
same,Fold (wound area),"[1]; 6 h, n2",0.870 Fold
same,Fold (wound area),"[1]; 6 h, n3",0.875 Fold
same,Fold (wound area),"[1]; 9 h, Average",0.851 Fold
same,Fold (wound area),"[1]; 9 h, n1",0.821 Fold
same,Fold (wound area),"[1]; 9 h, n2",0.862 Fold
same,Fold (wound area),"[1]; 9 h, n3",0.870 Fold
same,Fold (wound area),"[1]; 12 h, Average",0.799 Fold
same,Fold (wound area),"[1]; 12 h, n1",0.783 Fold
same,Fold (wound area),"[1]; 12 h, n2",0.824 Fold
same,Fold (wound area),"[1]; 12 h, n3",0.790 Fold
same,Fold (wound area),"[1]; 15 h, Average",0.781 Fold
same,Fold (wound area),"[1]; 15 h, n1",0.755 Fold
same,Fold (wound area),"[1]; 15 h, n2",0.799 Fold
same,Fold (wound area),"[1]; 15 h, n3",0.789 Fold
same,Fold (wound area),"[1]; 18 h, Average",0.759 Fold
same,Fold (wound area),"[1]; 18 h, n1",0.732 Fold
same,Fold (wound area),"[1]; 18 h, n2",0.791 Fold
same,Fold (wound area),"[1]; 18 h, n3",0.755 Fold
same,Fold (wound area),"[1]; 21 h, Average",0.739 Fold
same,Fold (wound area),"[1]; 21 h, n1",0.694 Fold
same,Fold (wound area),"[1]; 21 h, n2",0.751 Fold
same,Fold (wound area),"[1]; 21 h, n3",0.773 Fold
same,Fold (wound area),"[1]; 24 h, Average",0.707 Fold
same,Fold (wound area),"[1]; 24 h, n1",0.674 Fold
same,Fold (wound area),"[1]; 24 h, n2",0.730 Fold
same,Fold (wound area),"[1]; 24 h, n3",0.715 Fold
same,Wound area (Fold),"[1]; 1uM, 0 h, Mean",1.000 Fold
same,Wound area (Fold),"[1]; 1uM, 0 h, n1",0.9625 Fold
same,Wound area (Fold),"[1]; 1uM, 0 h, n2",0.9804 Fold
same,Wound area (Fold),"[1]; 1uM, 0 h, n3",1.057 Fold
same,Wound area (Fold),"[1]; 1uM, 3 h, Mean",0.967 Fold
same,Wound area (Fold),"[1]; 1uM, 3 h, n1",0.9475 Fold
same,Wound area (Fold),"[1]; 1uM, 3 h, n2",1.012 Fold
same,Wound area (Fold),"[1]; 1uM, 3 h, n3",0.9416 Fold
same,Wound area (Fold),"[1]; 1uM, 6 h, Mean",0.905 Fold
same,Wound area (Fold),"[1]; 1uM, 6 h, n1",0.8734 Fold
same,Wound area (Fold),"[1]; 1uM, 6 h, n2",0.9482 Fold
same,Wound area (Fold),"[1]; 1uM, 6 h, n3",0.8944 Fold
same,Wound area (Fold),"[1]; 1uM, 9 h, Mean",0.855 Fold
same,Wound area (Fold),"[1]; 1uM, 9 h, n1",0.8188 Fold
same,Wound area (Fold),"[1]; 1uM, 9 h, n2",0.9061 Fold
same,Wound area (Fold),"[1]; 1uM, 9 h, n3",0.8389 Fold
same,Wound area (Fold),"[1]; 1uM, 12 h, Mean",0.827 Fold
same,Wound area (Fold),"[1]; 1uM, 12 h, n1",0.7941 Fold
same,Wound area (Fold),"[1]; 1uM, 12 h, n2",0.8768 Fold
same,Wound area (Fold),"[1]; 1uM, 12 h, n3",0.8105 Fold
same,Wound area (Fold),"[1]; 1uM, 15 h, Mean",0.795 Fold
same,Wound area (Fold),"[1]; 1uM, 15 h, n1",0.7522 Fold
same,Wound area (Fold),"[1]; 1uM, 15 h, n2",0.8472 Fold
same,Wound area (Fold),"[1]; 1uM, 15 h, n3",0.7844 Fold
same,Wound area (Fold),"[1]; 1uM, 18 h, Mean",0.773 Fold
same,Wound area (Fold),"[1]; 1uM, 18 h, n1",0.739 Fold
same,Wound area (Fold),"[1]; 1uM, 18 h, n2",0.8198 Fold
same,Wound area (Fold),"[1]; 1uM, 18 h, n3",0.7589 Fold
same,Wound area (Fold),"[1]; 1uM, 21 h, Mean",0.762 Fold
same,Wound area (Fold),"[1]; 1uM, 21 h, n1",0.7242 Fold
same,Wound area (Fold),"[1]; 1uM, 21 h, n2",0.8105 Fold
same,Wound area (Fold),"[1]; 1uM, 21 h, n3",0.7528 Fold
same,Wound area (Fold),"[1]; 1uM, 24 h, Mean",0.743 Fold
same,Wound area (Fold),"[1]; 1uM, 24 h, n1",0.7122 Fold
same,Wound area (Fold),"[1]; 1uM, 24 h, n2",0.7843 Fold
same,Wound area (Fold),"[1]; 1uM, 24 h, n3",0.7318 Fold
same,Wound area (Fold),"[1]; 2uM, 0 h, Mean",1.000 Fold
same,Wound area (Fold),"[1]; 2uM, 0 h, n1",1.119 Fold
same,Wound area (Fold),"[1]; 2uM, 0 h, n2",0.971 Fold
same,Wound area (Fold),"[1]; 2uM, 0 h, n3",0.910 Fold
same,Wound area (Fold),"[1]; 2uM, 3 h, Mean",0.939 Fold
same,Wound area (Fold),"[1]; 2uM, 3 h, n1",0.920 Fold
same,Wound area (Fold),"[1]; 2uM, 3 h, n2",0.934 Fold
same,Wound area (Fold),"[1]; 2uM, 3 h, n3",0.964 Fold
same,Wound area (Fold),"[1]; 2uM, 6 h, Mean",0.916 Fold
same,Wound area (Fold),"[1]; 2uM, 6 h, n1",0.889 Fold
same,Wound area (Fold),"[1]; 2uM, 6 h, n2",0.924 Fold
same,Wound area (Fold),"[1]; 2uM, 6 h, n3",0.935 Fold
same,Wound area (Fold),"[1]; 2uM, 9 h, Mean",0.883 Fold
same,Wound area (Fold),"[1]; 2uM, 9 h, n1",0.869 Fold
same,Wound area (Fold),"[1]; 2uM, 9 h, n2",0.889 Fold
same,Wound area (Fold),"[1]; 2uM, 9 h, n3",0.891 Fold
same,Wound area (Fold),"[1]; 2uM, 12 h, Mean",0.872 Fold
same,Wound area (Fold),"[1]; 2uM, 12 h, n1",0.845 Fold
same,Wound area (Fold),"[1]; 2uM, 12 h, n2",0.886 Fold
same,Wound area (Fold),"[1]; 2uM, 12 h, n3",0.885 Fold
same,Wound area (Fold),"[1]; 2uM, 15 h, Mean",0.864 Fold
same,Wound area (Fold),"[1]; 2uM, 15 h, n1",0.827 Fold
same,Wound area (Fold),"[1]; 2uM, 15 h, n2",0.886 Fold
same,Wound area (Fold),"[1]; 2uM, 15 h, n3",0.880 Fold
same,Wound area (Fold),"[1]; 2uM, 18 h, Mean",0.859 Fold
same,Wound area (Fold),"[1]; 2uM, 18 h, n1",0.819 Fold
same,Wound area (Fold),"[1]; 2uM, 18 h, n2",0.879 Fold
same,Wound area (Fold),"[1]; 2uM, 18 h, n3",0.879 Fold
same,Wound area (Fold),"[1]; 2uM, 21 h, Mean",0.856 Fold
same,Wound area (Fold),"[1]; 2uM, 21 h, n1",0.813 Fold
same,Wound area (Fold),"[1]; 2uM, 21 h, n2",0.878 Fold
same,Wound area (Fold),"[1]; 2uM, 21 h, n3",0.878 Fold
same,Wound area (Fold),"[1]; 2uM, 24 h, Mean",0.847 Fold
same,Wound area (Fold),"[1]; 2uM, 24 h, n1",0.809 Fold
same,Wound area (Fold),"[1]; 2uM, 24 h, n2",0.868 Fold
same,Wound area (Fold),"[1]; 2uM, 24 h, n3",0.864 Fold
same,wound healing assay,[1]; low micromolar and submicromolar concentrations,considerable inhibitory activity
same,"Cleaved PARP normalized to DMSO, individual replicates",[2]; 0.5uM,5.004 and 2.098 and 0.920
same,"Cleaved PARP/actin, individual replicates",[2]; 0.5uM,0.036 and 0.018 and 0.00739
same,"Cleaved PARP normalized to DMSO, Average",[2]; 0.5μM,2.674
same,"Cleaved PARP normalized to DMSO, individual replicates",[2]; 1uM,1.063 and 1.446 and 0.643
same,"Cleaved PARP/actin, individual replicates",[2]; 1uM,0.008 and 0.012 and 0.005
same,"Cleaved PARP normalized to DMSO, Average",[2]; 1μM,1.051
same,"Cleaved PARP normalized to DMSO, individual replicates",[2]; 2uM,0.550 and 3.611 and 2.270
same,"Cleaved PARP/actin, individual replicates",[2]; 2uM,0.004 and 0.031 and 0.018
same,"Cleaved PARP normalized to DMSO, Average",[2]; 2μM,2.144
same,"Cleaved PARP normalized to DMSO, individual replicates",[2]; 5uM,1.726 and 2.128 and 2.224
same,"Cleaved PARP/actin, individual replicates",[2]; 5uM,0.013 and 0.018
same,"Cleaved PARP normalized to DMSO, Average",[2]; 5μM,2.026
same,apoptosis (PARP cleavage),[2]; submicromolar and low micromolar range (0.5 to 5 µM),did not induce apoptosis
same,effect of Ile252 mutation on compound activity in AraTM assay,[3],affected
same,"GFP/OD630, Mean",[3]; compound 5 μM,0.99
same,"GFP/OD630, individual replicates",[3]; compound 5 μM,0.93 and 1.08 and 0.97
same,"GFP/OD630, Mean",[3]; compound 10 μM,0.85
same,"GFP/OD630, individual replicates",[3]; compound 10 μM,0.76 and 0.91 and 0.89
same,"GFP/OD630, Mean",[3]; compound 20 μM,0.84
same,"GFP/OD630, individual replicates",[3]; compound 20 μM,1.01 and 0.83 and 0.69
same,"GFP/OD630, Mean",[3]; compound 30 μM,0.73
same,"GFP/OD630, individual replicates",[3]; compound 30 μM,0.91 and 0.67 and 0.61
same,"GFP/OD630, Mean",[3]; compound 40 μM,0.72
same,"GFP/OD630, individual replicates",[3]; compound 40 μM,0.77 and 0.62 and 0.76
